Laboratory results published in ChEMBL document CHEMBL1275256, “Contribution of a plasmid-borne blaOXA-58 gene with its hybrid promoter provided by IS1006 and an ISAba3-like element to beta-lactam resistance in acinetobacter genomic species 13TU” (2010).
Values after ≈ are worked out from the molar mass of the structure shown. Active and inactive are the calls of the source. The calls are words filed in the database; no cut-off is given here.

How the values were obtained:
Type in all cases: functional
[1] = Antimicrobial activity against Acinetobacter genomic species 13TU ATCC 17903 harboring pYMAb3 plasmid by agar dilution method; conditions: Acinetobacter nosocomialis
[2] = Antimicrobial activity against Acinetobacter genomic species 13TU ATCC 17903 by agar dilution method; conditions: Acinetobacter nosocomialis
[3] = Antimicrobial activity against Acinetobacter genomic species 13TU ATCC 17903 harboring pOXA-58-7 plasmid by agar dilution method; conditions: Acinetobacter nosocomialis
[4] = Antimicrobial activity against Acinetobacter genomic species 13TU ATCC 17903 harboring pOXA-58-6 plasmid by agar dilution method; conditions: Acinetobacter nosocomialis
[5] = Antimicrobial activity against Acinetobacter genomic species 13TU by agar dilution method; conditions: Acinetobacter nosocomialis
[6] = Antimicrobial activity against Acinetobacter genomic species 13TU ATCC 17903 harboring pOXA-58-5 plasmid by agar dilution method; conditions: Acinetobacter nosocomialis
[7] = Antimicrobial activity against Acinetobacter genomic species 13TU by Vitek II system in presence of Tazobactam; conditions: Acinetobacter nosocomialis
[8] = Antimicrobial activity against Acinetobacter genomic species 13TU ATCC 17903 harboring pOXA-58-5 plasmid by Vitek II system in presence of Tazobactam; conditions: Acinetobacter nosocomialis
[9] = Antimicrobial activity against Acinetobacter genomic species 13TU ATCC 17903 by Vitek II system in presence of Tazobactam; conditions: Acinetobacter nosocomialis
[10] = tested on: Acinetobacter nosocomialis; experiment: Antimicrobial activity against Acinetobacter genomic species 13TU ATCC 17903 harboring pOXA-58-6 plasmid by Etest method
[11] = Antimicrobial activity against Acinetobacter genomic species 13TU by Vitek II system; conditions: Acinetobacter nosocomialis
[12] = Antimicrobial activity against Acinetobacter genomic species 13TU ATCC 17903 harboring pOXA-58-5 plasmid by Vitek II system; conditions: Acinetobacter nosocomialis
[13] = Antimicrobial activity against Acinetobacter genomic species 13TU ATCC 17903 harboring pOXA-58-6 plasmid by Vitek II system; conditions: Acinetobacter nosocomialis
[14] = Antimicrobial activity against Acinetobacter genomic species 13TU ATCC 17903 harboring pYMAb3 plasmid by Vitek II system; conditions: Acinetobacter nosocomialis
[15] = Antimicrobial activity against Acinetobacter genomic species 13TU ATCC 17903 by Vitek II system; conditions: Acinetobacter nosocomialis
[16] = Antimicrobial activity against Acinetobacter genomic species 13TU ATCC 17903 harboring pOXA-58-7 plasmid by Vitek II system; conditions: Acinetobacter nosocomialis
[17] = tested on: Acinetobacter nosocomialis; experiment: Antimicrobial activity against Acinetobacter genomic species 13TU ATCC 17903 harboring pOXA-58-5 plasmid by Etest method

Row | SMILES | MIC [1] [µg/mL] | MIC [2] [µg/mL] | MIC [3] [µg/mL] | MIC [4] [µg/mL] | MIC [5] [µg/mL] | MIC [6] [µg/mL] | MIC [7] [µg/mL] | MIC [8] [µg/mL] | MIC [9] [µg/mL] | Activity [10] | MIC [11] [µg/mL] | MIC [12] [µg/mL] | MIC [13] [µg/mL] | MIC [14] [µg/mL] | MIC [15] [µg/mL] | MIC [16] [µg/mL] | Activity [17]
1 | CC1(C)S[C@@H]2[C@H](NC(=O)[C@H](N)c3ccc(O)cc3)C(=O)N2[C@H]1C(=O)O [AMOXICILLIN] | 64 (≈ 175 µM) | 64 (≈ 175 µM) | 256 (≈ 701 µM) | > 1020 | > 1020 | > 1020 | – | – | – | – | – | – | – | – | – | – | –
2 | CCN1CCN(C(=O)N[C@@H](C(=O)N[C@@H]2C(=O)N3[C@@H]2SC(C)(C)[C@@H]3C(=O)O)c2ccccc2)C(=O)C1=O [PIPERACILLIN] | 16 (≈ 30.9 µM) | 16 (≈ 30.9 µM) | 32 (≈ 61.8 µM) | 512 (≈ 989 µM) | > 1020 | > 1020 | ≥ 128 | ≥ 128 | ≤ 4 | – | – | – | – | – | – | – | –
3 | C[C@@H](O)[C@H]1C(=O)N2C(C(=O)O)=C(S[C@@H]3CN[C@H](C(=O)N(C)C)C3)[C@H](C)[C@H]12 [MEROPENEM] | 0.5 (≈ 1.3 µM) | 0.5 (≈ 1.3 µM) | 0.5 (≈ 1.3 µM) | 8 (≈ 20.9 µM) | 8 (≈ 20.9 µM) | 16 (≈ 41.7 µM) | – | – | – | inactive | – | – | – | – | – | – | –
4 | CO/N=C(\C(=O)N[C@@H]1C(=O)N2C(C(=O)O)=C(COC(N)=O)CS[C@H]12)c1ccco1 [CEFUROXIME] | – | – | – | – | – | – | – | – | – | – | ≥ 64 | ≥ 64 | 16 (≈ 37.7 µM) | 16 (≈ 37.7 µM) | 16 (≈ 37.7 µM) | 16 (≈ 37.7 µM) | –
5 | C[C@@H](O)[C@H]1C(=O)N2C(C(=O)O)=C(SCCNC=N)C[C@H]12 [IMIPENEM ANHYDROUS] | 0.25 (≈ 0.835 µM) | 0.25 (≈ 0.835 µM) | 0.5 (≈ 1.67 µM) | 16 (≈ 53.4 µM) | 16 (≈ 53.4 µM) | 32 (≈ 107 µM) | – | – | – | – | – | – | – | – | – | – | inactive
6 | CO/N=C(\C(=O)N[C@@H]1C(=O)N2C(C(=O)[O-])=C(C[N+]3(C)CCCC3)CS[C@H]12)c1csc(N)n1 [CEFEPIME] | 2 (≈ 4.16 µM) | 2 (≈ 4.16 µM) | – | 2 (≈ 4.16 µM) | 128 (≈ 266 µM) | 4 (≈ 8.32 µM) | – | – | – | – | – | – | – | – | – | – | –
7 | CC1(C)S[C@@H]2[C@H](NC(=O)[C@H](C(=O)O)c3ccsc3)C(=O)N2[C@H]1C(=O)O [TICARCILLIN] | 16 (≈ 41.6 µM) | 16 (≈ 41.6 µM) | 256 (≈ 666 µM) | > 1020 | > 1020 | > 1020 | – | – | – | – | – | – | – | – | – | – | –
8 | CC(C)(O/N=C(\C(=O)N[C@@H]1C(=O)N2C(C(=O)[O-])=C(C[n+]3ccccc3)CS[C@H]12)c1csc(N)n1)C(=O)O [CEFTAZIDIME] | 4 (≈ 7.32 µM) | 4 (≈ 7.32 µM) | 4 (≈ 7.32 µM) | 4 (≈ 7.32 µM) | 16 (≈ 29.3 µM) | 4 (≈ 7.32 µM) | – | – | – | – | – | – | – | – | – | – | –
